“And” between values parts separate entries of the source, which are not always exact repeats. Equal entries are not always repeated.
Tested on: MMP9
Assay: ELISA, MMP9 concentration
Format: cell-based, human
Description: The concentrations of matrix metalloproteinase-2 (MMP2), matrix metalloproteinase-9 (MMP9), Bcl2, BAX, P53, Malondialdehyde (MDA), Glutathione (GSH), caspase 8, caspase 9 and IL-6 were measured quantitatively in 5c treated MCF7 and HEP2 cells using ELISA (Enzyme-Linked Immunosorbent Assay) (Table 4). Gelatinases are a collective word for MMP-2 and MMP-9, where MMP-2 is gelatinase-A and MMP-9 is gelatinase-B. Solid tumor invasion, metastasis, and angiogenesis have long been linked to gelatinases (Das et al. [2021]). […] Bcl2 is a crucial protein that targets apoptosis inhibition. It is regarded as a predictive biomarker or therapeutic target in the diagnosis of cancer due to its broad expression in a variety of cancers (Porter et al. [2009]). […] The pro-apoptotic protein BAX permeabilizes the mitochondrial outer membrane by changing from a cytosolic monomer to a hazardous oligomer triggering the apoptosis process (Fulda and Debatin [2006]). […] P53 transcription factor performs an essential tumor suppressor role by coordinating a wide range of physiological responses, including DNA repair, cell cycle arrest, cellular senescence, cell death, cell differentiation, and metabolism (Liebl and Hofmann [2021]). It was activated in MCF7 and HEP2-treated cells with values (4.28 and 3.109 ng/mL), respectively, compared to their controls (3.44 and 2.06 ng/mL). […]

Q: `COc1ccc(NC(=O)COc2ccc(C=CC(=O)c3cccs3)cc2)cc1` [Compound 5c, N-(4-Methoxyphenyl)-2-(4-(3-oxo-3-(thiophen-2-yl)prop-1-en-1-yl)phenoxy)acetamide] was tested. Which MMP9 concentration (5c treated HEP2 cells, untreated 564.8±41.45) did it give?
A: 236.5 ng/mL and 236.5 ± 24.87 ng/mL

Q: What about the MMP9 concentration (5c treated MCF7 cells, untreated 588.28±24.87) of the same compound?
A: 271.6 ng/mL and 271.6 ± 58.04 ng/mL
